Tests used:
RINm5F cells = assay: Membrane potential on isolated β-cells (whole cell patch clamp, RINm5F cells); type: cell-based; conditions: compound 10^-6 mol per liter; diazoxide 100 μmol in bath; 34°±1° C.; blank cell potential -76
Excerpt: (2) Membrane potential on isolated β-cells:
The mechanism of action of the hypoglycemic sulfonylureas is elucidated in rough terms. The target organ is the β-cells of the pancreas where increased secretion of the hypoglycemic hormone insulin occurs. The release of insulin is controlled by means of the cell membrane potential. Glibenclamide causes a depolarization of the cell membrane, which promotes insulin release via an increased influx of calcium ions. The extent of this depolarization of the cell membrane ΔU was determined on RINm5F cells, a pancreas tumor cell line, for a few of the compounds according to the invention. The potency of a compound in this model predicts the extent of the hypoglycemic potential of this compound.
RINm5F cells were cultured at 37° C. in RPMI 1640 culture medium (Flow), to which 11 mmol of glucose, 10% (vol/vol) fetal calf-serum, 2 mmol of glutamine and 50 μg/ml of gentamycin were added. […]
Isolated RINm5F cells were transferred to a Plexiglas chamber on an inverted microscope which is equipped with a differential interference contrast optical system. […] In this whole cell configuration, the cell potential was recorded with the aid of a patch clamp amplifier (L/M EPC 7) and measured by applying a voltage ramp to the whole cell current. […]

[1] = system: papillary muscle of the guinea-pig; assay: Action potential duration on the papillary muscle of the guinea-pig (microelectrode technique; APD shortened by 2-deoxyglucose or rilmakalim); type: cell-based; conditions: test substance 2.2·10^-5 mol per liter, 30 minutes after addition, control <40 ms; for APD95 -rilmakalim: action potential reduced by 1 μM rilmakalim (Hoe 234); for APD95 -DEO: action potential reduced by 2-deoxyglucose (DEO)
Excerpt: (1) Action potential duration on the papillary muscle of the guinea-pig:
ATP deficiency states, as are observed during ischemia in the cardiac muscle cell, lead to a reduction of the action potential duration. They count as one of the causes of so-called reentry arrhythmias, which can cause sudden heart death. The opening of ATP-sensitive K channels by the reduction of ATP counts as causal here.
To measure the action potential, a standard microelectrode technique is employed. For this, guinea-pigs of both sexes are killed by a blow to the head, the hearts are removed, and the papillary muscles are separated out and suspended in an organ bath. The organ bath is irrigated with Ringer solution (0.9% NaCl, 0.048% KCl, 0,024% CaCl2, 0.02% NaHCO3 and 0.1% glucose) and aerated with a mixture of 95% oxygen and 5% carbon dioxide at a temperature of 36° C. The muscle is stimulated by means of an electrode using square-wave impulses of 1 V and 1 ms duration and a frequency of 2 Hz. The action potential is derived and recorded by means of a glass microelectrode inserted intracellularly, which is filled with […] KCl solution. The substances to be tested were added to the Ringer solution in a concentration of 2.2·10^-5 mol per liter. The action potential is shown amplified on an oscilloscope using an amplifier from Hugo Sachs. The duration of the action potential is determined at a degree of repolarization of 95% (APD95). Action potential reductions are produced either by addition of a 1 μM solution of the potassium channel opener rilmakalim (Hoe 234) [W. Linz, E. Klaus, U. Albus, R. H. A. Becker, D. Mania, H. C. Englert, B. A. Schokens, Arzneimittelforschung/Drug Research, Volume 42 (II), 1992, pp. 1180 to 1185] or by addition of 2-deoxyglucose (DEO). In experimental physiology, ATP deficiency states are produced by 2-deoxyglucose by blockade of glucose metabolism. The action potential-reducing effect of these substances was prevented or reduced by the simultaneous addition of the test substances. Test substances were added to the bath solution as stock solutions in propanediol. The values indicated relate to measurements 30 minutes after addition. The APD95 in the presence of […] or rilmakalim and in the absence of the test substance counts as the control.

Row | SMILES | ΔU (depolarization of the cell membrane) (RINm5F cells) | APD95 -rilmakalim [1] | APD95 -DEO [1]
1 | CNC(=S)NS(=O)(=O)c1cc(CCNC(=O)c2cc(Cl)ccc2OC)ccc1N1CCOCC1 [Example 1, 2-Methoxy-5-chloro-N-{5-[1-sulfonylamino-N-(methylaminothiocarbonyl)-2-(4-morpholino)phenyl]ethyl}benzamide] | 14 mv | 121 ± 14 ms | 110 ms
2 | CNC(=S)NS(=O)(=O)c1cc(CCNC(=O)c2cc(Cl)ccc2OC)ccc1N1CCCCC1 [Example 2, 2-Methoxy-5-chloro-N-{5-[1-sulfonylamino-N-(methylaminothiocarbonyl)-2-(1-piperidyl)phenyl]ethyl}benzamide] | 19 mv | 153 ± 15 ms | 105 ± 11 ms

From US5476850A, “Amino-substituted benzenesulfonylureas and -thioureas and their use as pharmaceuticals” (Hoechst Aktiengesellschaft, priority 1993, dated 1995)
